Measured values from ChEMBL document CHEMBL5131440, “Antischistosomal tetrahydro-γ-carboline sulfonamides” (Bioorg Med Chem Lett, 2022).
In brackets after ≈: the same amount, converted by molar mass.

Experiments:
[1] = Lipophilicity, log D of compound at pH 7.4 by gradient HPLC analysis; assay type: physicochemical; conditions: buffer
[2] = Solubility of compound in pH 2 0.01 M HCl by nephelometry; assay type: physicochemical
[3] = Solubility of compound in pH 6.5 phosphate buffer by nephelometry; assay type: physicochemical
[4] = Intrinsic clearance in human liver microsomes assessed per mg protein at 1 uM preincubated for 5 to 10 mins followed by NADPH-regenerating system addition and measured after 2 to 60 mins by LC-MS/MS analysis; assay type: ADME, Microsome; conditions: time 2-60 min
[5] = Intrinsic clearance in mouse liver microsomes assessed per mg protein at 1 uM preincubated for 5 to 10 mins followed by NADPH-regenerating system addition and measured after 2 to 60 mins by LC-MS/MS analysis; assay type: ADME, Microsome; conditions: time 2-60 min
[6] = Cytotoxicity against rat L6 cells assessed as reduction in cell viability measured after 70 hrs by alamar blue reagent based fluorescence assay; assay type: toxicity
Schistosoma mansoni [7] = test: Antischistosomal activity against Schistosoma mansoni adult worms at 10 uM measured at 24 hrs interval for 72 hrs relative to control; assay type: functional
Schistosoma mansoni [8] = test: Antischistosomal activity against Schistosoma mansoni NTS assessed as reduction in parasite viability measured at 24 hrs interval for 72 hrs by bright-field microscopy; assay type: functional, organism-based
Schistosoma mansoni [9] = test: Antischistosomal activity against Schistosoma mansoni adult worms measured at 24 hrs interval for 72 hrs; assay type: functional, organism-based
Schistosoma mansoni [10] = test: Antischistosomal activity against Schistosoma mansoni Liberian adult worms assessed as reduction in worm viability measured after 72 hrs by microscopy; assay type: functional, organism-based

SMILES | logD [1] | solubility kinetic [2] [µg/mL] | solubility kinetic [3] [µg/mL] | intrinsic clearance [4] [µL/min] | intrinsic clearance (CLint) [5] [µL/min] | IC50 at 70 h [6] [µM] | Activity (Schistosoma mansoni [7]) [%] | IC50 (Schistosoma mansoni [8]) [µM] | IC50 (Schistosoma mansoni [9]) [µM] | IC50 (Schistosoma mansoni [10]) [µM]
Cc1ccc(S(=O)(=O)N2CCc3[nH]c4ccccc4c3C2)cc1 | 4.1 | 1.6 (≈ 4.9 µM) | 1.6 (≈ 4.9 µM) | 170 | 540 | 29 |  |  |  | 
NC(=O)c1ccc2[nH]c3c(c2c1)CN(S(=O)(=O)c1ccc(F)cc1)CC3 | 2.6 | 12.5 (≈ 33.5 µM) | 6.3 (≈ 16.9 µM) | 124 | 81 | 100 |  |  |  | 
O=C(Nc1ccc(F)cc1)N1CCc2[nH]c3ccccc3c2C1 | 3.4 | 6.3 (≈ 20.4 µM) | 6.3 (≈ 20.4 µM) | 82 | 130 | 85 |  |  |  | 
O=S(=O)(c1ccc(C(F)(F)F)cc1)N1CCc2[nH]c3ccccc3c2C1 | 4.3 | < 1.6 | < 1.6 | 50 | 431 | 81 |  |  |  | 
O=S(=O)(c1ccccc1)N1CCc2[nH]c3ccccc3c2C1 | 3.9 | 1.6 (≈ 5.12 µM) | 1.6 (≈ 5.12 µM) | 250 | > 866 | 100 |  |  |  | 
O=C(c1ccc(F)cc1)N1CCc2[nH]c3ccccc3c2C1 | 3.3 | 6.3 (≈ 21.4 µM) | 6.3 (≈ 21.4 µM) | 111 | 184 | 69 | 24 |  |  | 
O=S(=O)(c1ccc(F)cc1)N1CCc2[nH]c3ccc(F)cc3c2C1 | 4.1 | 3.1 (≈ 8.9 µM) | 1.6 (≈ 4.59 µM) | 105 | > 866 | 150 |  |  |  | 
O=S(=O)(c1ccc(Cl)cc1)N1CCc2[nH]c3ccccc3c2C1 | 4.2 | 1.6 (≈ 4.61 µM) | 1.6 (≈ 4.61 µM) | 74 | 607 | 53 |  |  |  | 
O=S(=O)(c1ccc(F)cc1)N1CCc2[nH]c3ccccc3c2CC1 | 4.2 | < 1.6 | < 1.6 | 123 | > 866 | 83 |  |  |  | 
O=S(=O)(Cc1ccc(F)cc1)N1CCc2[nH]c3ccccc3c2C1 | 3.9 | 3.1 (≈ 9 µM) | 1.6 (≈ 4.65 µM) | 135 | 688 | 56 |  |  |  | 
O=S(=O)(c1ccc(Br)cc1)N1CCc2[nH]c3ccccc3c2C1 | 4.4 | < 1.6 | < 1.6 | 102 | 446 | 26 | 67 | 4.9 | 4.4 | 
O=C(O)c1ccc(S(=O)(=O)N2CCc3[nH]c4ccccc4c3C2)cc1 | 1.6 | 3.1 (≈ 8.7 µM) | 25 (≈ 70.1 µM) | 11 | < 7 | 190 |  |  |  | 
O=C(c1ccc2[nH]c3c(c2c1)CN(S(=O)(=O)c1ccc(F)cc1)CC3)N1CCOCC1 | 3 | 12.5 (≈ 28.2 µM) | 6.3 (≈ 14.2 µM) | 89 | 120 | 130 |  |  |  | 
CS(=O)(=O)c1ccc(S(=O)(=O)N2CCc3[nH]c4ccccc4c3C2)cc1 | 3.4 | 3.1 (≈ 7.94 µM) | 3.1 (≈ 7.94 µM) | 57 | 156 | > 250 | 43 | 3.3 |  | 
O=S(=O)(C1CCOCC1)N1CCc2[nH]c3ccccc3c2C1 | 2.9 | 25 (≈ 78 µM) | 25 (≈ 78 µM) | 34 | 674 | 160 |  |  |  | 
O=S(=O)(c1ccc(F)cc1)N1CCc2c([nH]c3ccccc23)C1 | 4.1 | < 1.6 | < 1.6 | 120 | 445 | 53 |  |  |  | 
O=S(=O)(c1cccnc1)N1CCc2[nH]c3ccccc3c2C1 | 3.1 | 12.5 (≈ 39.9 µM) | 6.3 (≈ 20.1 µM) | 117 | 561 | 110 |  |  |  | 
O=S(=O)(c1ccc(F)cc1)N1CCc2[nH]c3ccccc3c2C1 | 4 | 1.6 (≈ 4.84 µM) | 1.6 (≈ 4.84 µM) | 120 | > 866 | 52 | 59 | 1.2 | 4.2 | 
O=C1CCN(S(=O)(=O)c2ccc(F)cc2)CC(=O)c2ccccc2N1 | 2.5 | 50 (≈ 138 µM) | 50 (≈ 138 µM) | 40 | 107 | > 280 |  |  |  | 
O=S(=O)(c1ccc(F)cc1)N1CCc2[nH]c3ncccc3c2C1 | 3.2 | 50 (≈ 151 µM) | 12.5 (≈ 37.7 µM) | 62 | 339 | 82 |  |  |  | 
CS(=O)(=O)N1CCc2[nH]c3ccccc3c2C1 | 2.6 | 25 (≈ 99.9 µM) | 25 (≈ 99.9 µM) | 12 | 21 | 290 |  |  |  | 
O=S(=O)(c1cnc[nH]1)N1CCc2[nH]c3ccccc3c2C1 | 2 | 50 (≈ 165 µM) | 50 (≈ 165 µM) | < 7 | 17 | 170 |  |  |  | 
O=C(O)c1ccc2[nH]c3c(c2c1)CN(S(=O)(=O)c1ccc(F)cc1)CC3 | 1.4 | 3.1 (≈ 8.28 µM) | 50 (≈ 134 µM) | < 7 | < 7 | 240 |  |  |  | 
N#Cc1ccc2[nH]c3c(c2c1)CN(S(=O)(=O)c1ccc(F)cc1)CC3 | 3.8 | 1.6 (≈ 4.5 µM) | 1.6 (≈ 4.5 µM) | 399 | 230 | 33 |  |  |  | 
NC(=O)Cn1c2c(c3ccccc31)CN(S(=O)(=O)c1ccc(F)cc1)CC2 |  | 3.1 (≈ 8 µM) | 3.1 (≈ 8 µM) | 75 | 176 | 150 |  |  |  | 
O=C(C1CCCCC1)N1CC(=O)N2CCc3ccccc3C2C1 (centres undefined) [PRAZIQUANTEL] |  |  |  |  |  |  |  |  |  | 0.077
